Reference: ChEMBL document CHEMBL1201862, “PubChem BioAssay data set” (2004)
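Dose response: 5 concentrations. Exposure: 48 h. Format: 96-well plates. Endpoint: linear interpolation; highest concentration if not reached. The concentration for 50% growth inhibition is given as GI50.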 Activity calls are given as the source filed them. No stated cut-off is given here; in the data, active = GI50 up to about 1.1 µM and inactive = higher.

How the values were obtained:
Test in all cases: NCI tumour cell line growth inhibition, 48 h
786-0 = test system: 786-0
A498 = test system: A498
A549 = test system: A549
ACHN = test system: ACHN
CAKI-1 = test system: CAKI-1
CCRF-CEM = test system: CCRF-CEM
COLO 205 = test system: COLO 205
DLD-1 = test system: DLD-1
DMS-114 = test system: DMS-114
DMS-273 = test system: DMS-273
EKVX = test system: EKVX
HCC 2998 = test system: HCC 2998
HCT-116 = test system: HCT-116
HCT-15 = test system: HCT-15
HL-60 = test system: HL-60
HOP-18 = test system: HOP-18
HOP-62 = test system: HOP-62
HT-29 = test system: HT-29
IGROV-1 = test system: IGROV-1
K562 = test system: K562
KM-20L2 = test system: KM-20L2
KM12 = test system: KM12
LOX IMVI = test system: LOX IMVI
LXFL 529 = test system: LXFL 529
M14 = test system: M14
M19-MEL = test system: M19-MEL
MOLT-4 = test system: MOLT-4
Malme-3M = test system: Malme-3M
NCI-H226 = test system: NCI-H226
NCI-H23 = test system: NCI-H23
NCI-H460 = test system: NCI-H460
NCI-H522 = test system: NCI-H522
OVCAR-3 = test system: OVCAR-3
OVCAR-4 = test system: OVCAR-4
OVCAR-5 = test system: OVCAR-5
OVCAR-8 = test system: OVCAR-8
RPMI-8226 = test system: RPMI-8226
RXF 393 = test system: RXF 393
SF-268 = test system: SF-268
SF-295 = test system: SF-295
SF-539 = test system: SF-539
SK-MEL-28 = test system: SK-MEL-28
SK-MEL-2 = test system: SK-MEL-2
SK-MEL-5 = test system: SK-MEL-5
SK-OV-3 = test system: SK-OV-3
SN12C = test system: SN12C
SNB-19 = test system: SNB-19
SNB-75 = test system: SNB-75
SNB-78 = test system: SNB-78
SW-620 = test system: SW-620
TK-10 = test system: TK-10
U-251 = test system: U-251
UACC-257 = test system: UACC-257
UACC-62 = test system: UACC-62
UO-31 = test system: UO-31

SMILES: O=C1c2ccccc2C2(O)Nc3c(ccc4ccccc34)C12O (stereo not drawn)
- GI50 (786-0): > 100 µM (inactive)
- GI50 (A498): > 100 µM (inactive)
- GI50 (A549): > 100 µM (inactive)
- GI50 (ACHN): > 100 µM (inactive)
- GI50 (CAKI-1): > 100 µM (inactive)
- GI50 (CCRF-CEM): 55.3 µM (inactive)
- GI50 (COLO 205): > 100 µM (inactive)
- GI50 (DLD-1): > 100 µM (inactive)
- GI50 (DMS-114): 60 µM (inactive)
- GI50 (DMS-273): > 100 µM (inactive)
- GI50 (EKVX): > 100 µM (inactive)
- GI50 (HCC 2998): > 100 µM (inactive)
- GI50 (HCT-116): > 100 µM (inactive)
- GI50 (HCT-15): > 100 µM
- GI50 (HL-60): 97.1 µM (inactive)
- GI50 (HOP-18): > 100 µM (inactive)
- GI50 (HOP-62): > 100 µM (inactive)
- GI50 (HT-29): > 100 µM (inactive)
- GI50 (IGROV-1): > 100 µM (inactive)
- GI50 (K562): 61.4 µM (inactive)
- GI50 (KM-20L2): > 100 µM (inactive)
- GI50 (KM12): 87.1 µM (inactive)
- GI50 (LOX IMVI): > 100 µM (inactive)
- GI50 (LXFL 529): 67.8 µM (inactive)
- GI50 (M14): > 100 µM (inactive)
- GI50 (M19-MEL): > 100 µM (inactive)
- GI50 (MOLT-4): 39 µM (inactive)
- GI50 (Malme-3M): > 100 µM (inactive)
- GI50 (NCI-H226): > 100 µM (inactive)
- GI50 (NCI-H23): > 100 µM (inactive)
- GI50 (NCI-H460): > 100 µM (inactive)
- GI50 (NCI-H522): 95.5 µM (inactive)
- GI50 (OVCAR-3): 99.5 µM (inactive)
- GI50 (OVCAR-4): > 100 µM (inactive)
- GI50 (OVCAR-5): > 100 µM (inactive)
- GI50 (OVCAR-8): > 100 µM (inactive)
- GI50 (RPMI-8226): > 100 µM (inactive)
- GI50 (RXF 393): > 100 µM (inactive)
- GI50 (SF-268): > 100 µM (inactive)
- GI50 (SF-295): > 100 µM (inactive)
- GI50 (SF-539): > 100 µM (inactive)
- GI50 (SK-MEL-28): > 100 µM (inactive)
- GI50 (SK-MEL-2): > 100 µM (inactive)
- GI50 (SK-MEL-5): 72.8 µM (inactive)
- GI50 (SK-OV-3): > 100 µM (inactive)
- GI50 (SN12C): > 100 µM (inactive)
- GI50 (SNB-19): 85.3 µM (inactive)
- GI50 (SNB-75): > 100 µM (inactive)
- GI50 (SNB-78): > 100 µM (inactive)
- GI50 (SW-620): > 100 µM (inactive)
- GI50 (TK-10): > 100 µM (inactive)
- GI50 (U-251): > 100 µM (inactive)
- GI50 (UACC-257): > 100 µM (inactive)
- GI50 (UACC-62): > 100 µM (inactive)
- GI50 (UO-31): 95.5 µM (inactive)

SMILES: O=C1[C@H]2C(c3ccccc3)=NN(C(=O)c3ccccc3)[C@H]2C(=O)N1c1ccccc1
- GI50 (786-0): > 100 µM (inactive)
- GI50 (A549): > 100 µM (inactive)
- GI50 (ACHN): > 100 µM (inactive)
- GI50 (CCRF-CEM): > 100 µM (inactive)
- GI50 (COLO 205): > 100 µM (inactive)
- GI50 (DLD-1): > 100 µM (inactive)
- GI50 (DMS-114): > 100 µM (inactive)
- GI50 (DMS-273): > 100 µM (inactive)
- GI50 (EKVX): > 100 µM (inactive)
- GI50 (HCT-116): > 100 µM (inactive)
- GI50 (HCT-15): > 100 µM
- GI50 (HOP-18): 68.4 µM (inactive)
- GI50 (HOP-62): > 100 µM (inactive)
- GI50 (HT-29): > 100 µM (inactive)
- GI50 (IGROV-1): > 100 µM (inactive)
- GI50 (K562): > 100 µM (inactive)
- GI50 (KM12): > 100 µM (inactive)
- GI50 (LOX IMVI): > 100 µM (inactive)
- GI50 (M14): > 100 µM (inactive)
- GI50 (MOLT-4): > 100 µM (inactive)
- GI50 (Malme-3M): > 100 µM (inactive)
- GI50 (NCI-H226): > 100 µM (inactive)
- GI50 (NCI-H23): > 100 µM (inactive)
- GI50 (NCI-H460): > 100 µM (inactive)
- GI50 (NCI-H522): > 100 µM (inactive)
- GI50 (OVCAR-3): > 100 µM (inactive)
- GI50 (OVCAR-8): > 100 µM (inactive)
- GI50 (RPMI-8226): > 100 µM (inactive)
- GI50 (RXF 393): > 100 µM (inactive)
- GI50 (SF-295): > 100 µM (inactive)
- GI50 (SF-539): > 100 µM (inactive)
- GI50 (SK-MEL-28): > 100 µM (inactive)
- GI50 (SK-MEL-2): > 100 µM (inactive)
- GI50 (SK-OV-3): > 100 µM (inactive)
- GI50 (SN12C): > 100 µM (inactive)
- GI50 (SNB-19): > 100 µM (inactive)
- GI50 (SNB-75): > 100 µM (inactive)
- GI50 (SW-620): > 100 µM (inactive)
- GI50 (TK-10): > 100 µM (inactive)
- GI50 (U-251): > 100 µM (inactive)
- GI50 (UACC-257): > 100 µM (inactive)
- GI50 (UACC-62): > 100 µM (inactive)
- GI50 (UO-31): > 100 µM (inactive)
